From patent US5851782A, “Inhibitors of ceramidase” (Duke University, priority 1996, dated 1998)

Legend:
[1] = system: ceramide-activated protein phosphatase (CAPP); test: CAPP serine/threonine phosphatase activity in vitro; format: biochemical; conditions: myelin basic protein phosphorylated by protein kinase A as substrate
[2] = molecular target: T1, acidic sphingomyelinase (Homo sapiens, UniProt P17405); test: Acidic sphingomyelinase activity in vitro; format: biochemical
T1 sequence (P17405 47-631): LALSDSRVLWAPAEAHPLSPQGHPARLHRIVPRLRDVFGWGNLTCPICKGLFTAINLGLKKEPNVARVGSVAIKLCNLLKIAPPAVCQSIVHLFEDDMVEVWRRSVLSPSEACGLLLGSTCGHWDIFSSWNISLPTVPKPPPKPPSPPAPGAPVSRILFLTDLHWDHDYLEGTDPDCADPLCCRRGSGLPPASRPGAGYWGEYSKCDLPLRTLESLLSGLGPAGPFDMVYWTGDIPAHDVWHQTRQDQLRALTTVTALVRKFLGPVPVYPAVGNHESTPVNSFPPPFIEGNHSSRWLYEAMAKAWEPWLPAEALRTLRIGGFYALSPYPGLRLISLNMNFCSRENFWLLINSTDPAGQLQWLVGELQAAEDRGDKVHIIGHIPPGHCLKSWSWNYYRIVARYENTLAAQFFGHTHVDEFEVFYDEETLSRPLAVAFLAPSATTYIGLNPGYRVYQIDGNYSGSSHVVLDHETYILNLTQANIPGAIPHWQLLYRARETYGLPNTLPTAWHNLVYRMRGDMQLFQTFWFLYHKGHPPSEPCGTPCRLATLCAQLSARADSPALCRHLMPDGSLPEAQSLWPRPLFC
Excerpt: (§1) In addition to ceramidase, inhibition of cerebroside synthase and sphingomyelin synthase or stimulation of sphingomyelinase or cerebrosidase could result in elevations in endogenous ceramide levels. Therefore, the effects of D- and L-e-MAPP were examined on these enzyme activities in vitro and in cells.

[3] = system: neutral sphingomyelinase; test: Neutral sphingomyelinase activity in vitro; format: biochemical
Excerpt: as §1

[4] = molecular target: T2, Glucosylceramide synthase (Homo sapiens, UniProt Q16739); test: Glucocerebroside (glucosylceramide) synthase assay in vitro; format: biochemical; conditions: 20 μM; for Glucosylceramide synthase activity: Control 1.009 ± 0.0424; for inhibition of cerebroside synthase activity: Table I
T2 sequence (Q16739 1-394): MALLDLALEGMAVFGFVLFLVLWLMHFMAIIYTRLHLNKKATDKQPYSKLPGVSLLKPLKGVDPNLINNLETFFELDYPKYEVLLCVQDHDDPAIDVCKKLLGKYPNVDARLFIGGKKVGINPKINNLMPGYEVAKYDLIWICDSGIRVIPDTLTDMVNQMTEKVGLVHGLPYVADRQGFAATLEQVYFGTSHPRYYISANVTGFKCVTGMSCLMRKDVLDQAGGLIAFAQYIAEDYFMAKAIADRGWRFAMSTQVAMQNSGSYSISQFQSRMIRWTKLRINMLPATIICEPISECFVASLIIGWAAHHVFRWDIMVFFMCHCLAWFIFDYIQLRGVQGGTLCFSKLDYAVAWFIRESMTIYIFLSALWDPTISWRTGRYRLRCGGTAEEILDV
Method: (§2) Glucocerebrosidase and glucocerebroside synthase assays. In vitro assays for gluccerebrosidase and for cerebroside synthase were performed as described (Abe et al, J. Biochem. (Tokyo) 11:191 (1992)).
as §1

[5] = system: HL-60 human myelocytic leukemia cells; test: HL-60 cell proliferation (cell counting); format: cell-based; conditions: for effect on cell growth: HL-60 cells, 5 μM, time course
Method: Proliferation and cell cycle studies. HL-60 human myelocytic leukemia cells (obtained from the American Type Culture Collection) were grown in RPMI 1640 medium containing 10 fetal calf serum at 37° C. in 5% CO2 incubator. For proliferation and cell cycle studies, cells were resuspended at a density of 2×10^5 cells/ml in serum-free media containing insulin (5 mg/liter) and transferrin (5 mg/liter) and sodium selenite (5 μg/liter) for 2-4 h. Cells were then treated with the indicated compounds. Ethanol concentration was always maintained at less than 0.1%. Cell proliferation was determined by counting cells using a hemacytometer, cell viability was evaluated by trypan blue dye exclusion, and cell cycle analysis was determined by propidium iodide flow cytometry as described (Chao et al, J. Biol. Chem. 267:23459 (1992)).
In structure-function analysis of ceramide-mediated growth suppression using amides of phenylaminoalcohols, D- and L-erythro-MAPP were employed. In these studies, HL-60 cells were treated with 5 μM of either D-e-MAPP or L-e-MAPP, and growth was determined at the indicated time points (FIG. 2A).
(§3) Studies were conducted examining the uptake and metabolism of D- and L-MAPP. In the first set of studies, the effect of duration of exposure of HL-60 cells to D-e-MAPP on the bioactivity of the molecule was determined. D-e-MAPP added to cells could be washed off by repeated sedimentation and washing of cells. Thus, after five cycles of washing, less than 10% of D-MAPP remained associated with the cell pellet-compared to unwashed cells (FIG. 5A).

[6] = molecular target: T3, β-glucosidase (Homo sapiens, UniProt P04062); test: Glucocerebrosidase assay in vitro; format: biochemical
T3 sequence (P04062 40-536): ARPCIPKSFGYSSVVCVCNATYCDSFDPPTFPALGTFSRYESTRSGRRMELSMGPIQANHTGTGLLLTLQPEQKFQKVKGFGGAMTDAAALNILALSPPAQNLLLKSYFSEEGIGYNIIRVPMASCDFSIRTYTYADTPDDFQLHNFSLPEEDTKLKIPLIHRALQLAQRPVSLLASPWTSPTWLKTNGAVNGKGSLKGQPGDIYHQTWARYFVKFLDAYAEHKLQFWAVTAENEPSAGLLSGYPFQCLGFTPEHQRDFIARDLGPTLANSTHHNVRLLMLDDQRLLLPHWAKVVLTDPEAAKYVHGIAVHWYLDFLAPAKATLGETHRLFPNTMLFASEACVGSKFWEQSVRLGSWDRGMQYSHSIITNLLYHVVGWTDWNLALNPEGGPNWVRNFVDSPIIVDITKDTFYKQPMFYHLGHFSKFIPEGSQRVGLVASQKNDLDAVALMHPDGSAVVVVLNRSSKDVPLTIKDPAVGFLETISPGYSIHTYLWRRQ
Method: as §2, §1

[7] = system: HL-60 cells; test: Uptake of tritium-labeled compounds by HL-60 cells; format: cell-based, human; conditions: for partitioning of label taken up into lipid organic phase: HL-60, 0-72 h, 5 to 30 μM; for uptake by cells: 24 hr
Method: Uptake and metabolism studies. HL-60 cells were grown as described and treated with ^3 H-labeled compounds at concentrations ranging from 0 to 10 μM. At the indicated time points, cell pellets were separated from media and ^3 H radioactivity was counted.
as §3
Next, the uptake of tritium-labeled D- and L-e-MAPP was examined. To this end, D- and L-e-MAPP labeled in the N-myristoyl group were synthesized and used for uptake and metabolism studies. […] At 24 hr, approximately 20% of D-e-MAPP (5 μM) and 26% of L-e-MAPP (5 μM) were taken up by cells.
The partitioning of the label taken up by cells into the lipid organic phase was evaluated next.

[8] = system: endogenous levels of sphingomyelin; test: Endogenous sphingomyelin levels in cells; format: cell-based
Excerpt: as §1

**Q.** For `CCCCCCCCCCCCCC(=O)N[C@H](C)[C@@H](O)c1ccccc1` [D-e-MAPP, D-erythro-2-(N-myristolyamino)-1-phenyl-1-propanol], which “activation of CAPP in vitro” value [1] is on record?
**A.** neither D-e-MAPP nor L-e-MAPP activated CAPP

**Q.** What about the “effect on activity of acidic sphingomyelinase” value [2] of the same molecule?
**A.** neither D- nor L-e-MAPP modulated the activity of neutral or acidic sphingomyelinases

**Q.** What about the “effect on activity of neutral sphingomyelinase” value [3] of the same molecule?
**A.** neither D- nor L-e-MAPP modulated the activity of neutral or acidic sphingomyelinases

**Q.** What about the Glucosylceramide synthase activity [4] of the same molecule?
**A.** 0.946 ± 0.0265 nmol/h/mg protein

**Q.** And the “inhibition of cerebroside synthase activity” value [4]?
**A.** Neither D- nor L-e-MAPP caused inhibiton of cerebroside synthase activity

**Q.** And the “effect on cell growth, exposure for only 15 min” value ([5]; HL-60, 5 μM, back-extracted with 5 washes after 15 min)?
**A.** did not affect cell growth

**Q.** What about the “effect on cell growth, continuous exposure” value ([5]; HL-60, 5 μM, compared to vehicle-treated cells) of the same molecule?
**A.** dramatic growth inhibition

**Q.** And the “effect on cell growth” value [5]?
**A.** time dependent suppression of growth

**Q.** What about the “effect on activity of β-glucosidase” value [6] of the same molecule?
**A.** did not activate or modulate

**Q.** And the “partitioning of label taken up into lipid organic phase” value [7]?
**A.** majority of the label in D-e-MAPP or L-e-MAPP remained associated with the organic phase

**Q.** What about the uptake by cells ([7]; HL-60, 5 μM) of the same molecule?
**A.** approximately 20%

**Q.** And the “compound remaining associated with the cell pellet after washing” value ([7]; HL-60, 5 μM, five cycles of washing, compared to unwashed cells)?
**A.** less than 10%

**Q.** What about the “effect on endogenous levels of sphingomyelin” value [8] of the same molecule?
**A.** neither D- nor L-e-MAPP modulated the endogenous levels of sphingomyelin

**Q.** Which “activation of CAPP in vitro” value [1] does the source give for `CCCCCCCCCCCCCC(=O)N[C@@H](C)[C@H](O)c1ccccc1` [L-e-MAPP, L-erythro-2-(N-myristolyamino)-1-phenyl-1-propanol] here?
**A.** neither D-e-MAPP nor L-e-MAPP activated CAPP

**Q.** And the “effect on activity of acidic sphingomyelinase” value [2]?
**A.** neither D- nor L-e-MAPP modulated the activity of neutral or acidic sphingomyelinases

**Q.** What about the “effect on activity of neutral sphingomyelinase” value [3] of the same molecule?
**A.** neither D- nor L-e-MAPP modulated the activity of neutral or acidic sphingomyelinases

**Q.** And the Glucosylceramide synthase activity [4]?
**A.** 1.009 ± 0.0383 nmol/h/mg protein

**Q.** And the “inhibition of cerebroside synthase activity” value [4]?
**A.** Neither D- nor L-e-MAPP caused inhibiton of cerebroside synthase activity

**Q.** And the “effect on cell growth” value [5]?
**A.** largely inactive

**Q.** And the “effect on activity of β-glucosidase” value [6]?
**A.** did not activate or modulate

**Q.** And the “partitioning of label taken up into lipid organic phase” value [7]?
**A.** majority of the label in D-e-MAPP or L-e-MAPP remained associated with the organic phase

**Q.** And the uptake by cells ([7]; HL-60, 5 μM)?
**A.** ~26%

**Q.** And the “effect on endogenous levels of sphingomyelin” value [8]?
**A.** neither D- nor L-e-MAPP modulated the endogenous levels of sphingomyelin
